Test results reported in patent US5212075A, “Compositions and methods for introducing effectors to pathogens and cells” (priority 1991, dated 1993).

Key:
[1] = tested on: E. coli K1 pilA+::tetR; test: microbe, parasite or virus in culture; format: cell-based; details: for IC100: Escherichia coli, 0.05 h, read-out: Concentration causing total inhibition of yeast agglutination; for Relative Inhibitory Activity: concentration of methyl α-D-mannopyranoside divided by the concentration of the compound
Description: Compounds 4, 6-9 and 12 were assayed for bacterial receptor binding using agglutination studies with yeast cells and their inhibitory activity was compared to that of methyl α-D-mannopyranoside 13 (Firon et al. (1983) Carbohydrate Research 120:235; Eshdat et al. (1978) Biochem. Biophys. Res. Commun. 85:1551; and Firon et al. (1982) Biochem. Biophys. Res. Commun. 105:1426. The bacterial strain used in our study was a systemically invasive E. coli K1 pilA+::tetR strain that is responsible for sepsis and meningitis in human infants (Bloch et al. (1990) Infection and Immunity 58:275). A summary of the results is given in Table 2.
^a E. coli K1 pilA+::tetR were grown for 24 h at 37° C. on
solid LB media supplemented with tetracycline and were suspended with a
cotton swab in 4 mL of Dulbecco's PBS to a final dilution of 2 ×
10^8 cells/mL. Yeast (Saccharomyces cerevisiae, wild type) were grown
for 36 h on solid YPD media at 30° C. and were suspended with a
cotton swab in 4 mL of Dulbecco's PBS to a final dilution of 1 ×
10^8 cells mL. Protein concentrations were determined by BCA Protein
Assay (Pierce). Agglutination assays were performed on a 20 well ceramic
ring plate. Typically, 90 μl of a solution of the test compound was
combined with 30 μl of the bacterial suspension. After 30 seconds, 30
μl of the yeast suspension was added to give a final volume of 150
μl and the wells were allowed to develop for 3 min. with agitation. A
μl aliquot was removed from each well and spread onto a standard
microscope slide. The slides were quickly heat fixed and mounted with 10
μl of glycerol. The slides were examined under phase contrast at
500× magnification using a Zeiss Axioskip microscope. Agglutination
was observed as clusters of cells. total inhibition of agglutination was
determined by the observation of single cells only.
^b Concentration causing total inhibition of yeast agglutination.

[2] = tested on: complement (Clq); test: Binding of complement (Clq) to anti-avidin (IgG2) bound to E. coli through the hybrid molecule
Description: Clq binding is the first step in the complement cascase which is part of the humoral response.

[3] = tested on: E. coli cell; test: Localization of protein A-gold particles on the E. coli cell surface by transmission electron microscopy; format: cell-based; details: avidin, anti-avidin antibodies, protein A labelled with gold particles (15 nm); no localization without hybrid molecule
Description: The particles were bound through a hybrid molecule consisting of a mannose binding moiety attached to biotin through a carbon linkage. Avidin, anti-avidin antibodies, and protein A labelled with the gold particles were exposed to cell and completed a bridge binding the gold particles. The location of a gold particle is shown by the arrow.
FIG. 6 is an electron micrograph showing a strain of E. coli, similar to that illustrated in FIG. 5, in the absence of the hybrid molecule. The cell was exposed to avidin, anti-avidin antibodies, and protein A labelled with gold particles. No localization of the gold particles was achieved without the hybrid molecules.
E coli cells bound with avidin, as described above, were sequentially exposed to anti-avidin antibodies and gold (15 nm) colloidal particles bound to protein A. It was expected that the gold would localize on the E. coli cell surface through an antibody-protein A bridge. Localization on bacterial pili was confirmed by transmission electron microscopy (TEM). The results are shown in FIG. 5 (typical gold particle shown by arrow) and FIG. 6 (control where E. coli cells incubated with protein A-gold without anti-avidin antibody).

Compound | IC100 [1] [µM] | Relative Inhibitory Activity [1] | further results
CCC[C@H]1O[C@H](CO)[C@@H](O)[C@H](O)[C@@H]1O [Compound 4] | 7000 | 9.6 | 
O=C(O)CC[C@H]1O[C@H](CO)[C@@H](O)[C@H](O)[C@@H]1O [Compound 6] | 47000 | 1.4 | 
NCCC[C@H]1O[C@H](CO)[C@@H](O)[C@H](O)[C@@H]1O [Compound 7] | 40000 | 1.7 | 
OCCC[C@H]1O[C@H](CO)[C@@H](O)[C@H](O)[C@@H]1O [Compound 8] | 13000 | 5.2 | 
O=C(CCCC[C@@H]1SC[C@@H]2NC(=O)N[C@@H]21)NCCC[C@H]1O[C@H](CO)[C@@H](O)[C@H](O)[C@@H]1O [Compound 9] | 7000 | 9.6 | Clq binding to anti-avidin (IgG2) bound to E. coli [2]: has also been shown; Localization of gold particles on the E. coli surface (TEM) [3]: localization of gold particles on the surface of an E. coli cell
CCC[C@@H]1O[C@H](CO)[C@@H](O)[C@H](O)[C@@H]1O [Compound 12] |  |  | Inhibitory activity on agglutination ([1]; at a concentration of 100 mM): no inhibitory activity
CO[C@H]1O[C@H](CO)[C@@H](O)[C@H](O)[C@@H]1O [Compound 13, methyl α-D-mannopyranoside, reference compound] | 67000 | 1 | 
O=[N+]([O-])c1ccc(O[C@H]2O[C@H](CO)[C@@H](O)[C@H](O)[C@@H]2O)cc1 [Compound 14, reference compound] | 1600 | 42 | 
avidin: avidin alone, a soluble glycosylated protein used in place of streptavidin [reference compound] |  |  | Concentration causing total inhibition of yeast agglutination ([1]; E. coli K1 pilA+::tetR with Saccharomyces cerevisiae, 3 min, single cells only under phase contrast): 0.4 mM
